Results from the supplement of paper PMC13380429.

Legend:
Details in all cases: 72 h
Caco-2 [1] = experiment: cell viability relative to DMSO; higher = less toxic
HepG2 [2] = experiment: as above
U2OS [3] = experiment: as above
Vero E6 [4] = experiment: as above
Caco-2 [5] = experiment: relative viability EC50 (midpoint between 100% and the lowest measured viability); higher = less toxic
HepG2 [6] = experiment: as above
U2OS [7] = experiment: as above
Vero E6 [8] = experiment: as above
Caco-2 [9] = experiment: drug sensitivity score (DSS) for viability; higher = more toxic; extreme values may be limits of the assay
HepG2 [10] = experiment: as above
U2OS [11] = experiment: as above
Vero E6 [12] = experiment: as above
Calu-3 [13] = experiment: cell viability relative to DMSO; higher = less toxic
Calu-3 [14] = experiment: relative viability EC50 (midpoint between 100% and the lowest measured viability); higher = less toxic
Calu-3 [15] = experiment: drug sensitivity score (DSS) for viability; higher = more toxic; extreme values may be limits of the assay

SMILES	cell viability (Caco-2 [1]; 1 nM) [%]	cell viability (Caco-2 [1]; 10 nM) [%]	cell viability (Caco-2 [1]; 100 nM) [%]	cell viability (Caco-2 [1]; 1000 nM) [%]	cell viability (Caco-2 [1]; 10000 nM) [%]	cell viability (HepG2 [2]; 1 nM) [%]	cell viability (HepG2 [2]; 10 nM) [%]	cell viability (HepG2 [2]; 100 nM) [%]	cell viability (HepG2 [2]; 1000 nM) [%]	cell viability (HepG2 [2]; 10000 nM) [%]	cell viability (U2OS [3]; 1 nM) [%]	cell viability (U2OS [3]; 10 nM) [%]	cell viability (U2OS [3]; 100 nM) [%]	cell viability (U2OS [3]; 1000 nM) [%]	cell viability (U2OS [3]; 10000 nM) [%]	cell viability (Vero E6 [4]; 1 nM) [%]	cell viability (Vero E6 [4]; 10 nM) [%]	cell viability (Vero E6 [4]; 100 nM) [%]	cell viability (Vero E6 [4]; 1000 nM) [%]	cell viability (Vero E6 [4]; 10000 nM) [%]	relative viability EC50 (Caco-2 [5]) [µM]	relative viability EC50 (HepG2 [6]) [µM]	relative viability EC50 (U2OS [7]) [µM]	relative viability EC50 (Vero E6 [8]) [µM]	drug sensitivity score (Caco-2 [9])	drug sensitivity score (HepG2 [10])	drug sensitivity score (U2OS [11])	drug sensitivity score (Vero E6 [12])	cell viability (Calu-3 [13]; 1 nM) [%]	cell viability (Calu-3 [13]; 10 nM) [%]	cell viability (Calu-3 [13]; 100 nM) [%]	cell viability (Calu-3 [13]; 1000 nM) [%]	cell viability (Calu-3 [13]; 10000 nM) [%]	relative viability EC50 (Calu-3 [14]) [µM]	drug sensitivity score (Calu-3 [15])
Cc1ccc(OCCSc2ncccn2)c(Br)c1 [ZLN024]	99.2	104	94.8	97	102	105	106	109	99.9	110	97.8	105	97.1	101	101	106	98.2	107	102	105	> 10	> 10	> 10	> 10	0	0	0	0	–	–	–	–	–	–	–
CCN(CCCc1ccccc1)CCCc1ccccc1 [alverine]	101	93.6	99.2	97.8	94.8	107	87.3	96.7	98.1	76.2	102	100	101	97.8	102	97.2	93.4	100	97.9	100	> 10	> 10	> 10	> 10	0	1.1	0	0	–	–	–	–	–	–	–
NCc1ccccc1CC(=O)N[C@@H]1C(=O)N2C(C(=O)O)=C(CSc3nnnn3CC(=O)O)CS[C@H]12 [ceforanide]	88.4	92.9	102	99.3	100	99.5	106	109	98	106	96.3	97.3	100	102	103	97.3	98	96.8	93.8	103	> 10	> 10	> 10	> 10	0	0	0	0	–	–	–	–	–	–	–
CC(=O)NC[C@H]1CN(c2ccc(N3CCN(C(=O)CO)CC3)c(F)c2)C(=O)O1 [eperezolid]	98.6	96.9	102	101	102	99.1	98.7	89.1	88.2	81.1	105	99.4	99.3	96.4	98.6	96.3	99.3	97.5	97.1	93.5	> 10	> 10	> 10	> 10	0	1.7	0	0	–	–	–	–	–	–	–
O=C1[C@H](CC[C@H](O)c2ccc(F)cc2)[C@@H](c2ccc(O)cc2)N1c1ccc(F)cc1 [ezetimibe]	97.6	98.1	93.3	95.9	88.9	103	96.6	100	90.8	88.8	95.9	101	95.8	104	91	99.6	106	100	100	107	> 10	> 10	> 10	> 10	0	0.2	0	0	–	–	–	–	–	–	–
O=C(O)Cc1sc(-c2ccccc2)nc1-c1ccc(Cl)cc1 [fentiazac]	100	98.9	92.6	97.6	95.3	95.3	103	97.6	103	94.9	99	98.7	95.2	93.9	92.4	99.3	101	96	99.7	92.2	> 10	> 10	> 10	> 10	0	0	0	0	–	–	–	–	–	–	–
N=C(N)c1ccc(-c2ccc(-c3ccc(C(=N)N)cc3)o2)cc1 [furamidine]	97	92.8	98.1	101	95	109	97.2	96.4	79.9	59.7	–	–	–	–	–	99.7	97.3	97.9	97.8	102	> 10	–	–	> 10	0	4.1	–	0	92.6	104	97.1	96.4	110	> 10	0
